US9131687B2, “Roseobacticides and uses thereof” (PRESIDENT AND FELLOWS OF HARVARD COLLEGE, priority 2010, dated 2015)
Where “and” joins values, the source holds several entries; their conditions need not be identical. Identical values can stand only once. Like-named read-outs stand apart in the source and are kept apart here.

Tests used:
Emiliana huxleyi CCMP372 = test: Algaecidal assay, cell counts by flow cytometry and microscopy; format: cell-based; details: for IC50: Emiliana huxleyi CCMP372, 24 h, flow cytometry; for algal cell population damaged yet intact: lowest Roseobacticide concentration tested, microscopy; for effect of incubation on E. huxleyi cells: microscopy at 12 and 24 h
Method: (§1) The algaecidal effect of Roseobacticide A and B was tested against five axenic microalgae (the Prymnesiophytes Emiliana huxleyi (CCMP372) and Isochrysis sp. (CCMP468), the green alga Tetraselmis suecica (CCMP908), the diatom Chaetoceros muelleri (CCMP1318) and the cryptomonad Rhodomonas salina (CCMP1319)). All strains were grown on L1 media except for CCMP1318, which was grown in L1+Si (Guillard, R. R. L. & Hargraves, P. E., 1993, Phycologia 32: 234-236). All strains were maintained at 24° C. under 12 h:12 h light:dark illumination.
(§2) To perform assays, algal cultures were diluted 1:1 with the medium they were grown in and then 1 mL aliquots were placed in a 48 well microtitre plate and treated with 0.01-0.000000001 mg/mL of Roseobacticide A or B, or alternatively with MeOH solvent, or medium (as controls) and incubated for 24 h at 24° C. under 12 h: 12 h light:dark illumination. Each treatment was monitored microscopically at 2, 12 and 24 h. Cell counts were determined by flow cytometry and compared to the solvent control.
(§3) Flow cytometry. For flow cytometry counts, duplicate 0.5 ml samples were fixed with 0.125% (vol/vol) glutaraldehyde in the dark for 10 min. Cells were then frozen in an ethanol dry ice bath and stored at −80° C. until analyzed. Cell concentrations were measured with an EPICS flow cytometer using red fluorescence and forward angle light scattering properties to identify the cells as previously described (Cavender-Bares, K. K., et al., 1998, Limnol. Oceanogr. 43:1383-1388).

P. gallaeciensis BS107 = test: Elicitation of roseobacticide production, HPLC-MS; format: cell-based, Phaeobacter gallaeciensis BS107; details: for secondary metabolite production by HPLC-MS: P. gallaeciensis BS107 incubated with elicitor; for EC50: Phaeobacter gallaeciensis
Method: (§4) Roseobacter (Phaeobacter gallaeciensis BS107, Ruegeria sp. R11 and Silicibacter pomeroyi DSS3) and other marine strains (see Table 4) were streaked out from frozen stocks and maintained on Marine Broth (Difco 2216) supplemented with 1.5% agar and incubated at 30° C. for two days. A 50 mL test tube containing 5 mL of ½ strength yeast extract, tryptone and sea salt medium (YTSS, per L: 2 g yeast extract, 1.25 g tryptone, 20 g sea salt) was inoculated with each strain and grown overnight at 30° C. on a horizontal rotating drum fermenter. A 500 mL Erlenmeyer flask containing 50 mL of YTSS medium and 0-3 mM pCA was inoculated with 0.5 mL of the overnight culture and incubated at 160 rpm and 30° C. for 3 d. After 3 d, each culture was extracted once with an equal volume of ethyl acetate, dried in vacuo, resuspended in methanol and analyzed by HPLC-MS as described above.
Preparative-scale (2-8 L) cultivation of P. gallaeciensis BS107 (or other roseobacter strains) was carried out in half-strength yeast extract-tryptonesea salt (YTSS) medium, which consists of (per L): 20 g Sigma sea salt, 2 g yeast extract, and 1.25 g tryptone. P. gallaeciensis BS107 (or other roseobacter strains) were streaked out from frozen culture stocks and maintained on Marine Broth agar plates (Difco 2216) at 30° C. Overnight cultures were initiated by inoculating 5 mL YTSS medium in 15 mL culture tubes and shaking these overnight at 250 rpm and 30° C. A 0.5 L Erlenmeyer flask containing 50 mL YTSS medium was inoculated with 0.5 mL of the overnight culture and grown for 12-18 h at 30° C. and 160 rpm. Large 4 L Erlenmeyer flasks, each containing 0.4 L YTSS medium, were inoculated with 4 mL of the overnight culture and supplemented with 1 mM of each of the elicitors (14-18). The cultures were grown for 3 d at 30° C. and roseobacticides purified as described below.
Eight to ten 0.25 L Erlenmeyer flasks each containing 25 mL of YTSS medium and a range of elicitor concentrations (between 0 and 1.2 mM) were inoculated with 0.25 mL of an overnight P. gallaeciensis BS107 culture prepared as described above. These were grown at 30° C. and 160 rpm. After 3 d, each culture was extracted twice with 25 mL of EtOAc. The organic phase was combined, dried over Na2SO4, and subsequently dried in vacuo. The residue was resuspended in 0.3 mL MeOH and analyzed by HPLC-MS as described above. The amount of roseobacticide B (7) produced, which was quantified by massion extraction ([M+H]^+=269), was plotted against the concentration of the elicitor. The maximal amount of 7 was normalized to 100%, and the EC50, the elicitor concentration where production of 7 was half-maximal, was obtained by fitting the data to equation 1, where Bmax and Bmin are the maximal (˜100%) and minimal (˜0%) amounts of 7 and p is a Hill slope parameter to account for variations in the slope. Bmax and Bmin were allowed to vary to obtain the optimal fit as judged by the R^2 correlation value.

P. gallaeciensis = test: Growth (OD650 nm) of P. gallaeciensis cultivated with pCA; format: cell-based, Phaeobacter gallaeciensis; details: 1 mM pCA, YTSS medium, 3 d, triplicate
Method: as §4
The profiles shown in FIG. 1B have not been corrected for the lower cell density observed in the presence of pCA.

S. pomeroyi DSS-3 = test: pCA-dependent changes of HPLC-MS profile; format: cell-based, Silicibacter pomeroyi DSS-3; details: 0.1-3 mM pCA
Method: as §4
(§5) The inventors cultured three roseobacter strains—S. pomeroyi DSS-3, Ruegeria sp. R11, and P. gallaeciensis BS107—in the presence of varying pCA concentrations (0.1-3 mM). At various time points, the cultures were extracted with ethyl acetate and analyzed by HPLC-MS. The HPLC-MS profiles from S. pomeroyi and Ruegeria sp. […] In the absence of pCA, these compounds were not produced by P. gallaeciensis under any of the conditions that were investigated.

Ruegeria sp. R11 = test: pCA-dependent changes of HPLC-MS profile; format: cell-based; details: 0.1-3 mM pCA
Method: as §4, §5

Bacillus subtilis 3610 = test: IC50 of Roseobacticide A against selected bacterial strains (disc diffusion / 96 well plate); format: cell-based
Method: (§6) Selected bacterial strains (see Table 4) were tested against Roseobacticide A using the disc diffusion assay (Gauvreau, D. & Waring, M., 1982, J. Appl. Microbiol. Biotechnol. 115:104-110). Overnight cultures of each test strain in YTSS were diluted 1000-fold into YTSS containing 0.7% agar and poured into standard Petri dish plates. Blank paper discs (8 mm, Fisher Scientific) were loaded with 50 μg of phaeobactin A and placed on top of the agar. The plates were incubated at 30° C. for 12-24 h and the presence or absence of an inhibition zone was monitored visually. Ampicillin (0.5 μg) and MeOH were used as positive and negative controls, respectively. In addition, the assay was carried out in 96 well plates according to the 2003 guidelines of the Clinical and Laboratory Standards Institute (CLSI, formerly NCCLS) with minor changes.
(§7) Roseobacters were grown and tested in YTSS medium, B. subtilis 3610 in LB, and P. tunicate D2 in Marine Broth (Difco 2216). Inocula for each test organism were prepared by suspending a colony from an agar plate into 5 mL of YTSS, LB, or Marine Broth in 15 mL bacterial culture tubes. These were grown overnight, and then adjusted to 1×10^8 cells/mL. These cell suspensions were used as inocula for 96 well plate assays: 10 μL of inoculum, corresponding to 1×10^6 cells was added to 90 μL of the appropriate medium and supplemented with 10 μL medium (negative control), 10 μL of MeOH (negative control), 10 μL of 0.5 mg/mL, or 0.25 mg/mL of Roseobacticide A. The assay against each test strain was carried out in duplicate. The plate was incubated without shaking for 24 hours at 30° C., and the OD650 nm determined on a Molecular Devices 96 well plate reader. […] The OD650 nm for the wells containing Roseobacticide A in all each cases was between 80-100% of the value determined for the respective negative controls.

[1] = system: Phaeobacter gallaeciensis 2.10; test: as above; format: cell-based
Method: as §6, §7

[2] = system: Phaeobacter gallaeciensis BS107; test: as above; format: cell-based
Method: as §6, §7

[3] = system: Pseudoalteromonas tunicata D2; test: as above; format: cell-based
Method: as §6, §7

Reugeria sp. R11 = test: as above; format: cell-based
Method: as §6, §7

[4] = system: Silicibacter pomeroyi DSS3; test: as above; format: cell-based; details: Ruegeria pomeroyi
Method: as §6, §7

Silicibacter sp. TM1040 = test: as above; format: cell-based
Method: as §6, §7

Vibrio anguillarum = test: as above; format: cell-based
Method: as §6, §7

[5] = system: Chaetoceros muelleri CCMP1318; test: Algaecidal assay, cell counts by flow cytometry and microscopy; format: cell-based
Method: as §1, §2, §3

Isochrysis sp. CCMP468 = test: as above; format: cell-based; details: Isochrysis sp. CCMP468, 24 h, flow cytometry
Method: as §1, §2, §3

[6] = system: Rhodomonas salina CCMP1319; test: as above; format: cell-based; details: for IC50: Rhodomonas salina CCMP1319, 24 h, flow cytometry
Method: as §1, §2, §3

[7] = system: Tetraselmis suecica CCMP908; test: as above; format: cell-based; details: Tetraselmis suecica CCMP908, 24 h, flow cytometry
Method: as §1, §2, §3

[8] = system: panel of marine bacteria and B. subtilis 3610; test: Antibacterial assay against the whole panel of test strains (96 well plate, OD650); format: cell-based; details: 10 μL of 0.5 mg/mL or 0.25 mg/mL, 24 hours, 30° C., all test strains
Method: as §6
Roseobacters were grown and tested in YTSS medium, B. subtilis 3610 in LB, and P. tunicate D2 in Marine Broth (Difco 2216). […] The plate was incubated without shaking for 24 hours at 30° C., and the OD650 nm determined on a Molecular Devices 96 well plate reader. […] The OD650 nm for the wells containing Roseobacticide A in all each cases was between 80-100% of the value determined for the respective negative controls.

algae = test: Algicidal activity (lysis of algae), summary over algae; format: cell-based; details: read-out: LC50 range, algicidal activity
Method: as §1, §2
Flow cytometry. […] Cells were then frozen in an ethanol dry ice bath and stored at −80° C. until analyzed. Cell concentrations were measured with an EPICS flow cytometer using red fluorescence and forward angle light scattering properties to identify the cells as previously described (Cavender-Bares, K. K., et al., 1998, Limnol. Oceanogr. 43:1383-1388).

[9] = BS107, 72 h, 3 d culture, HPLC-MS ion extraction, read-out: EC50, elicitor concentration where production of roseobacticide B (7) is half-maximal

SMILES: CSc1ccccc2c(-c3ccccc3)c(=O)oc1-2 [Roseobacticide B]
- IC50 (Emiliana huxleyi CCMP372): 0.19 µM and ≥ 0.19 µM
- algal cell population damaged yet intact (Emiliana huxleyi CCMP372): 48%
- effect of incubation on E. huxleyi cells (Emiliana huxleyi CCMP372): cell lysis after 24 h, with cellular damage visible after 12 h

SMILES: O=C(O)/C=C/c1ccc(O)cc1 [pCA, p-coumaric acid]
- secondary metabolite production by HPLC-MS (P. gallaeciensis BS107): stimulated the production of a family of compounds
- secondary metabolite production by HPLC-MS (P. gallaeciensis BS107; listed as 14): production of a variety of new metabolites
- EC50 (P. gallaeciensis BS107; [9]): 790 ± 30 µM
- EC50 (P. gallaeciensis BS107; BS107, FIG. 1C, average of two measurements, read-out: EC50, dose-response of (6) as a function of [pCA]): 790 ± 30 µM
- OD650 nm lower than cultures without pCA (P. gallaeciensis): 17±8%
- changes of HPLC-MS profile (S. pomeroyi DSS-3): no significant pCA-dependent changes
- changes of HPLC-MS profile (Ruegeria sp. R11): no significant pCA-dependent changes

SMILES: CSSc1cccc2c(-c3ccccc3)c(=O)oc-2c1 [Roseobacticide E]
- initial bioassays against E. huxleyi (Emiliana huxleyi CCMP372): potent antialgal compounds

SMILES: CSc1cccc2c(-c3c[nH]c4ccccc34)c(=O)oc-2c1 [Roseobacticide C]
- initial bioassays against E. huxleyi (Emiliana huxleyi CCMP372): potent antialgal compounds

SMILES: CSc1cccc2c(-c3ccc(O)cc3)c(=O)oc-2c1 [Roseobacticide A]
- IC50 (Bacillus subtilis 3610): > 160 µM
- IC50 [1]: > 160 µM
- IC50 [2]: > 160 µM
- IC50 [3]: > 160 µM
- IC50 (Reugeria sp. R11): > 160 µM
- IC50 [4]: > 160 µM
- IC50 (Silicibacter sp. TM1040): > 160 µM
- IC50 (Vibrio anguillarum): > 160 µM
- effect on C. muelleri cell shape ([5]; 3.5 μM, 24 h): major morphological changes
- IC50 ([5]; Chaetoceros muelleri CCMP1318, 24 h, flow cytometry): > 35 µM
- IC50 (Emiliana huxleyi CCMP372): ≥ 2.2 µM
- algal cell population damaged yet intact (Emiliana huxleyi CCMP372): 20%
- effect of incubation on E. huxleyi cells (Emiliana huxleyi CCMP372): cell lysis after 24 h, with cellular damage visible after 12 h
- IC50 (Isochrysis sp. CCMP468): > 35 µM
- IC50 [6]: ≥ 0.1 µM
- IC50 ([6]; Rhodomonas salina, 24 h): 0.1 µM
- susceptibility of the R. salina population ([6]; dose response, micrographs): Only a subpopulation appears to be susceptible
- IC50 [7]: > 35 µM
- OD650 nm relative to the respective negative controls [8]: 80-100%
- CC50 (algae): 0.1 to 35 µM

SMILES: COc1cc(/C=C/C(=O)O)cc(OC)c1O [Roseobacticide 15, sinapic acid]
- secondary metabolite production by HPLC-MS (P. gallaeciensis BS107): production of a variety of new metabolites
- EC50 (P. gallaeciensis BS107; [9]): 430 ± 30 µM

SMILES: COc1cc(/C=C/C(=O)O)ccc1O [Roseobacticide 16, ferulic acid]
- secondary metabolite production by HPLC-MS (P. gallaeciensis BS107): production of a variety of new metabolites
- EC50 (P. gallaeciensis BS107; [9]): 160 ± 20 µM
